Like-named read-outs stand apart in the source and are kept apart here. Peptide text beside a SMILES is read from it.
Key:
[1] = biological target: T1, Angiotensin-converting enzyme (ACE) from rabbit lung (Oryctolagus cuniculus, UniProt P12822); assay: in vitro ACE inhibitory activity (HHL substrate); assay type: biochemical; conditions: for IC50: mean ± SD; for inhibition at 10000 µM: peptide concentration 10 mM
T1 construct: Angiotensin-converting enzyme (ACE) from rabbit lung (A6778); purchased Sigma-Aldrich A6778; host or cells: rabbit lung (tissue-derived enzyme)
T1 sequence (P12822 34-1310): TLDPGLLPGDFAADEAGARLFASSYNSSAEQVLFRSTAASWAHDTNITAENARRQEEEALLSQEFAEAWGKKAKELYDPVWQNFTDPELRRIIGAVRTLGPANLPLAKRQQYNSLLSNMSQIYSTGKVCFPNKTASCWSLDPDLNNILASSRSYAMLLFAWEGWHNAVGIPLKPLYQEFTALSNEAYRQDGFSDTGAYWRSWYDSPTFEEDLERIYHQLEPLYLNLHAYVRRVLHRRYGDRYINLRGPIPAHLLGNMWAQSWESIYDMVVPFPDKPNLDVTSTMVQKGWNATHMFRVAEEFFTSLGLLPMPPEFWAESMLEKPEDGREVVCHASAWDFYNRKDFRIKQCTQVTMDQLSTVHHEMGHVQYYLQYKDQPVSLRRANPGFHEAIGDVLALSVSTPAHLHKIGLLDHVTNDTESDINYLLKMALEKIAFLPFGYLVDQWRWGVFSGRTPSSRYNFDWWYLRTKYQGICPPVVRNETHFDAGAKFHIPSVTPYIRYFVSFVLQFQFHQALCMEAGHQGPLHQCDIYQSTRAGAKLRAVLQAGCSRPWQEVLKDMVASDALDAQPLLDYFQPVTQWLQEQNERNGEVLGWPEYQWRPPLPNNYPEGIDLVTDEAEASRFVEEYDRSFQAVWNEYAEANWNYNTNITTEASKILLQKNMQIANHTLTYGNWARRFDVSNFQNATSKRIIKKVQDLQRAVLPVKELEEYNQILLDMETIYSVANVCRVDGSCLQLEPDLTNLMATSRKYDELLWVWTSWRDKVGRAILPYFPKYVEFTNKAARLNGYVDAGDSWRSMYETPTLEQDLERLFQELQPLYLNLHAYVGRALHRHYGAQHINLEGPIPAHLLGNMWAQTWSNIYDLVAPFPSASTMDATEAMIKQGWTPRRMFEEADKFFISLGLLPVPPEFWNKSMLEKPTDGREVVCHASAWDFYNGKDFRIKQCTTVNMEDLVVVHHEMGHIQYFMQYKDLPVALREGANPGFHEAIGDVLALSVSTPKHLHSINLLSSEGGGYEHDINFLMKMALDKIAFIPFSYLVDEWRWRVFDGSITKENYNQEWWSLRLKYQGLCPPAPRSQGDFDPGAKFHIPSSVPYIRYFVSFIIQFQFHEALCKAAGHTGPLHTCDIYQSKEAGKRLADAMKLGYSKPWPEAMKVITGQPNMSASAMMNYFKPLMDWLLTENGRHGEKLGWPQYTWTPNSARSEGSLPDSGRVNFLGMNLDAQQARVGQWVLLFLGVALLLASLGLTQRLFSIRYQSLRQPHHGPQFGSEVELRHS
Description: Angiotensin-converting enzyme (ACE) from rabbit lung (A6778), N-hippuryl–His–Leu hydrate (HHL) (H1635), and captopril were purchased from Sigma-Aldrich (St. Louis, MO, USA).
ACE from rabbits was used for in vitro testing, since rabbit and human ACE are nearly homologous and their active sites are highly similar.[24]

[2] = biological target: T1, Angiotensin-converting enzyme (ACE) from rabbit lung; assay: ACE inhibition kinetics (Lineweaver-Burk and secondary plots); assay type: biochemical; conditions: HHL 0.5–2 mM, read-out: inhibition constant (Ki)
Protocol: A kinetic study was performed following the procedure of Barbana et al. (2011)[23] to determine the inhibition pattern of four faba bean peptides with ACE inhibition activity (VIPTEPPH, VIPTEPPHA, VVIPTEPPHA, and VVIPTEPPH). The initial rate of reaction was measured with different HHL (0.5–2 mM) and peptides concentrations. Lineweaver–Burk double reciprocal plots were built to identify the inhibition pattern.
The ACE inhibition pattern of VIPTEPPH, VIPTEPPHA, VVIPTEPPHA, and VVIPTEPPH was assessed through kinetic experiments. The initial velocity of reaction was measured at different substrate (0.5–2 mM) and peptide concentrations, and Lineweaver–Burk double reciprocal plots were built to identify the inhibition pattern. […] The inhibitor binding site is, therefore, located outside the enzyme active site. The loss of ACE activity in the presence of peptides can, therefore, be explained by conformational changes caused by peptide binding rather than competition for the active site.
The inhibition constant (Ki) was calculated from secondary plots for each peptide. The secondary plots were constructed by plotting the Lineweaver–Burk curve slope against the peptide concentration. The Ki value was calculated from the negative intercept on the X-axis of the secondary plot. […] These Ki values are nearly identical to the IC50, confirming the noncompetitive inhibition pattern. The minor differences in the IC50 and Ki values can be explained by experimental imprecision.

[3] = Oxygen Radical Absorption Capacity (ORAC) assay; conditions: for ORAC activity per mg of peptides: as given in the text; for ORAC activity, times higher than Trolox: on a molar basis, range over the named peptides
Protocol: 2,2-Diphenyl-1-picrylhydrazyl (DPPH), 2,2′-azinobis(3-ethylbenzothiazoline-6-sulfonic acid) (ABTS), Oxygen Radical Absorption Capacity (ORAC), and the iron chelating assays were performed following the methods of Orona-Tamayo, Valverde, Nieto-Rendón, and Paredes-López (2015),[17] Re, Pellegrini, Proteggente, Pannala, Yang, and Rice-Evans (1999),[18] Tomer, McLeman, Ohmine, Scherer, Murray, and O’Neill (2007),[19] and of Orona-Tamayo et al. (2015),[17] respectively, as described in Martineau-Côté, Achouri, Wanasundara et al. (2022).[16] For the DPPH, ABTS, and iron chelating assays, the peptides were first screened at a high dose (10 mM). Peptides with antioxidant activity were then tested at different concentrations (0.1–10 mM) to evaluate the dose–response effect. The results were expressed as the half-maximal effective concentration (EC50), which was defined as the required peptide concentration, leading to 50% scavenging or chelating activity. The EC50 values were calculated using a four-parameter logistic curve regression, and Trolox was used as a positive control. For the ORAC assay, the results were expressed as μmol of Trolox equivalent per mM of peptides.

[4] = ABTS free radical scavenging assay; conditions: for ABTS activity, times lower than Trolox: range over the named peptides
Protocol: (§1) For the DPPH, ABTS, and iron chelating assays, the peptides were first screened at a high dose (10 mM). […] The EC50 values were calculated using a four-parameter logistic curve regression, and Trolox was used as a positive control. For the ORAC assay, the results were expressed as μmol of Trolox equivalent per mM of peptides.

[5] = free amino acids; cited from earlier work
[6] = DPPH free radical scavenging assay; conditions: mean ± SD; tested at 0.1–10 mM
Protocol: as §1

[7] = read-out: ACE Inhibition (IC50 μM)
[8] = read-out: ACE Inhibition (IC50 μg/mL) (converted)

Row | Compound | IC50 [1, 7] | IC50 [1, 8] | inhibition at 10000 µM [1] | Ki [2] | ORAC activity [5] | other results
1 | TETWNPNHPE [synthesized faba bean-derived peptide, parent protein legumin B] |  |  |  |  |  | ORAC activity ([3]; as given in the abstract): 2.84 ± 0.08 mM Trolox equivalent/mM; ORAC activity per mg of peptides [3]: 2.3 μMol Trolox eq/mg; ORAC activity, times higher than Trolox [3]: 2.5 to 2.8 times; ABTS activity, times lower than Trolox [4]: 8 to 66 times
2 | N[C@@H](Cc1c[nH]c2ccccc12)C(=O)O [tryptophan] |  |  |  |  | 2790 μMol TE eq/mM | 
3 | TETWNPNHPEL [synthesized faba bean-derived peptide, parent protein legumin B] |  |  |  |  |  | EC50 [6]: 2100 ± 100 µM; ORAC activity per mg of peptides [3]: 1.9 μMol Trolox eq/mg; ORAC activity, times higher than Trolox [3]: 2.5 to 2.8 times; EC50 ([4]; mean ± SD, tested at 0.1–10 mM): 500 ± 200 µM; ABTS activity, times lower than Trolox [4]: 8 to 66 times
4 | N[C@@H](Cc1c[nH]cn1)C(=O)O [histidine] |  |  |  |  | 78 μMol TE eq/mM | 
5 | N[C@@H](Cc1ccc(O)cc1)C(=O)O [tyrosine] |  |  |  |  | 1020 μMol TE eq/mM | 

Now from value to compound, other results behind:

Row | IC50 [1, 7] | IC50 [1, 8] | inhibition at 10000 µM [1] | Ki [2] | Compound | ORAC activity [5] | other results
6 | 123 ± 5 µM | 123 µM | 100% | 107 µM | CC[C@H](C)[C@H](NC(=O)[C@@H](N)C(C)C)C(=O)N1CCC[C@H]1C(=O)N[C@H](C(=O)N[C@@H](CCC(=O)O)C(=O)N1CCC[C@H]1C(=O)N1CCC[C@H]1C(=O)N[C@@H](Cc1c[nH]cn1)C(=O)N[C@@H](C)C(=O)O)[C@@H](C)O [VIPTEPPHA] (H-VIPTEPPHA-OH) |  | 
7 | 90 ± 10 µM | 91.1 µM | 100% | 87 µM | CC[C@H](C)[C@H](NC(=O)[C@@H](N)C(C)C)C(=O)N1CCC[C@H]1C(=O)N[C@H](C(=O)N[C@@H](CCC(=O)O)C(=O)N1CCC[C@H]1C(=O)N1CCC[C@H]1C(=O)N[C@@H](Cc1c[nH]cn1)C(=O)O)[C@@H](C)O [VIPTEPPH] (H-VIPTEPPH-OH) |  | 
8 | 43 ± 1 µM | 43.5 µM | 100% | 45 µM | CC[C@H](C)[C@H](NC(=O)[C@@H](NC(=O)[C@@H](N)C(C)C)C(C)C)C(=O)N1CCC[C@H]1C(=O)N[C@H](C(=O)N[C@@H](CCC(=O)O)C(=O)N1CCC[C@H]1C(=O)N1CCC[C@H]1C(=O)N[C@@H](Cc1c[nH]cn1)C(=O)O)[C@@H](C)O [VVIPTEPPH] (H-VVIPTEPPH-OH) |  | 
9 | 50 ± 5 µM | 50 µM | 100% | 54 µM | CC[C@H](C)[C@H](NC(=O)[C@@H](NC(=O)[C@@H](N)C(C)C)C(C)C)C(=O)N1CCC[C@H]1C(=O)N[C@H](C(=O)N[C@@H](CCC(=O)O)C(=O)N1CCC[C@H]1C(=O)N1CCC[C@H]1C(=O)N[C@@H](Cc1c[nH]cn1)C(=O)N[C@@H](C)C(=O)O)[C@@H](C)O [VVIPTEPPHA] (H-VVIPTEPPHA-OH) |  | 

Source: PMC10979453, “Antioxidant and Angiotensin-Converting Enzyme Inhibitory Activity of Faba Bean-Derived Peptides After In Vitro Gastrointestinal Digestion: Insight into Their Mechanism of Action” (Journal of Agricultural and Food Chemistry, 2024)
